# The source made the active and inactive calls.
# Assays:
# [1] = target: Sphingosine 1-phosphate receptor 3 (Homo sapiens, UniProt Q99500); assay: Late stage counterscreen assay for S1P4 antagonists: Fluorescence dose response cell-based screening assay for antagonists of the Sphingosine 1-Phosphate Receptor 3 (S1P3). [Related pubchem assays (depositor defined):AID1510, AID1524, AID1692, AID1853, AID2332, AID489009, AID489017]; format: functional
# [2] = target: Sphingosine 1-phosphate receptor 5 (Homo sapiens, UniProt Q9H228); assay: Late stage counterscreen assay for S1P4 antagonists: Fluorescence dose response cell-based screening assay for antagonists of the Sphingosine 1-Phosphate Receptor 5 (S1P5). [Related pubchem assays (depositor defined):AID1510, AID1524, AID1692, AID1853, AID2332, AID489009, AID489017]; format: functional
# [3] = target: Sphingosine 1-phosphate receptor 1 (Homo sapiens, UniProt P21453); assay: Late stage counterscreen assay for S1P4 antagonists: Fluorescence dose response cell-based screening assay for antagonists of the Sphingosine 1-Phosphate Receptor 1 (S1P1). [Related pubchem assays (depositor defined):AID1510, AID1524, AID1692, AID1853, AID2332, AID489009, AID489017]; format: functional
# [4] = target: Sphingosine 1-phosphate receptor 2 (Homo sapiens, UniProt O95136); assay: Late stage counterscreen assay for S1P4 antagonists: Fluorescence dose response cell-based screening assay for antagonists of the Sphingosine 1-Phosphate Receptor 2 (S1P2). [Related pubchem assays (depositor defined):AID1510, AID1524, AID1692, AID1853, AID2332, AID489009, AID489017]; format: functional
# [5] = target: T1, Sphingosine 1-phosphate receptor 4 (Homo sapiens, UniProt O95977); assay: S1P4 receptor antagonists, human, late-stage follow-up, cell-based, fluorescence, synthesized analogues (AID 2346); format: functional
# T1 sequence (O95977 whole entry): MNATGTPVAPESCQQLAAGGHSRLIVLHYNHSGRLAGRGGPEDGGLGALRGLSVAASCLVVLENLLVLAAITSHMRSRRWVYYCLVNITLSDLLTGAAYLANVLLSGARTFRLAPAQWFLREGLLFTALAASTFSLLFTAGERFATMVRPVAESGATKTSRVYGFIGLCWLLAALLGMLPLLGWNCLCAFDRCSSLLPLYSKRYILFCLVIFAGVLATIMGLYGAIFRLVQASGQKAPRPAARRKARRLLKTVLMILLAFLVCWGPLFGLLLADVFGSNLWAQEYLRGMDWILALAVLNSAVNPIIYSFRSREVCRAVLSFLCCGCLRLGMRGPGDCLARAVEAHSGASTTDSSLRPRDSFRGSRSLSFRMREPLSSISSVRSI
# [6] = system: Streptococcus; assay: Group A Streptococcus viability loss, dose response, counter-screen for streptokinase expression inhibitor project, luminescence, BacTiterGlo (AID 1915); format: functional, organism-based;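 note: potency for reduction of bacterial viability or growth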
# [7] = target: Intestinal-type alkaline phosphatase (Homo sapiens, UniProt P09923); assay: inhibition of human intestinal alkaline phosphatase – biochemical, dose response (AID 488876); format: functional
# [8] = target: T2, Alkaline phosphatase, tissue-nonspecific isozyme (Homo sapiens, UniProt P05186); assay: TNAP enzyme inhibition by screening hits, dose response, selectivity assay for mouse IAP inhibitor project, biochemical, human TNAP, uHTS hits (AID 488906); format: functional
# T2 sequence (P05186 whole entry): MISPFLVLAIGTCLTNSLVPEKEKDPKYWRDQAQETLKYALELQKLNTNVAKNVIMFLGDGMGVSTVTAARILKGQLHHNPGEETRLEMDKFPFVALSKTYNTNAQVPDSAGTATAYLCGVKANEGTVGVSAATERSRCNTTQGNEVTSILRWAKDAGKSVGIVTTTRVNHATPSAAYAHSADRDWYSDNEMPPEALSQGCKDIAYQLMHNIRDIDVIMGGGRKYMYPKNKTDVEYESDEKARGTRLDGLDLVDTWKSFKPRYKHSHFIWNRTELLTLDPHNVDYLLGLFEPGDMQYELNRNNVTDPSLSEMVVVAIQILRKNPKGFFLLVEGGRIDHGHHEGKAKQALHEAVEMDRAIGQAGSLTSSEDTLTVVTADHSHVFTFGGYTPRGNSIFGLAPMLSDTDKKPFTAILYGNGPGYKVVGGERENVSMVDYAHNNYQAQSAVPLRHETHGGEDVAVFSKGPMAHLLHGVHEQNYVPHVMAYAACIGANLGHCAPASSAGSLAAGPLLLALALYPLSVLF
# [9] = target: Intestinal-type alkaline phosphatase (Mus musculus, UniProt P24822); assay: PubChem AID 488785; format: functional
# [10] = target: T3, Streptokinase A (Streptococcus pyogenes serotype M1, UniProt P10520); assay: S. pyogenes streptokinase expression inhibitors, potency, dose response, plasminogen activation absorbance, OD405 (AID 1914); format: functional, Streptococcus pyogenes M1 GAS;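 note: secreted streptokinase activity via plasminogen activation per viability signal from cell pellet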
# T3 sequence (P10520 whole entry): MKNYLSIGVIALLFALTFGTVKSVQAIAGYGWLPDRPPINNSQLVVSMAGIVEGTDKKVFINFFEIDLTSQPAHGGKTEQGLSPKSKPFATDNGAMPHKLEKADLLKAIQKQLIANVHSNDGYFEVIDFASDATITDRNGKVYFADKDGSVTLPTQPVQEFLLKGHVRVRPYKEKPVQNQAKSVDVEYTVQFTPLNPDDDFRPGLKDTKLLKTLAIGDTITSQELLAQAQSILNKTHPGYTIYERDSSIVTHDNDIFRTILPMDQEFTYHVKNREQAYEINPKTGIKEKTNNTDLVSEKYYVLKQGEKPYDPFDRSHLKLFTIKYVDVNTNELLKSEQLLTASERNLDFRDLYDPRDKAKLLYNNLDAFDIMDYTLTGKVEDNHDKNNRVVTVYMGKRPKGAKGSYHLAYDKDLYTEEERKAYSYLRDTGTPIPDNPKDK
# [11] = system: Streptococcus sp. 'group A'; assay: growth inhibition of control SK(-) GAS strain, dose response, counter-screen for streptokinase expression inhibitor project, luminescence, kanamycin, BacTiterGlo, confirmation (AID 1900); format: functional, organism-based
# [12] = Fluorescence-based cell-based high throughput dose response assay for inhibitors of the interaction of nucleotide-binding oligomerization domain containing 2 (NOD2) and the receptor-interacting serine-threonine kinase 2 (RIPK2).; format: functional; conditions: Homo sapiens
# [13] = target: Hexokinase HKDC1 (Homo sapiens, UniProt Q2TB90); assay: HKDC1 hexokinase activators, dose response, biochemical, W721R variant (AID 504730); format: functional
# [14] = target: Hexokinase-1 (Homo sapiens, UniProt P19367); assay: hexokinase 1 activators, dose response, selectivity assay for HKDC1 activator project, biochemical (AID 504762); format: functional
# [15] = target: Scavenger receptor class B member 1 (Mus musculus, UniProt Q61009); assay: inhibitors of SR-BI mediated HDL lipid uptake, dose response, ldlA[mSR-BI] cells, fluorescence, cherry pick (AID 493194); format: functional, cell-based;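 note: cellular uptake of fluorescent DiI-labeled HDL measured as cell fluorescence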
# [16] = target: T4, Histone-lysine N-methyltransferase NSD2 (Homo sapiens, UniProt O96028); format: biochemical
# T4 sequence (O96028 whole entry): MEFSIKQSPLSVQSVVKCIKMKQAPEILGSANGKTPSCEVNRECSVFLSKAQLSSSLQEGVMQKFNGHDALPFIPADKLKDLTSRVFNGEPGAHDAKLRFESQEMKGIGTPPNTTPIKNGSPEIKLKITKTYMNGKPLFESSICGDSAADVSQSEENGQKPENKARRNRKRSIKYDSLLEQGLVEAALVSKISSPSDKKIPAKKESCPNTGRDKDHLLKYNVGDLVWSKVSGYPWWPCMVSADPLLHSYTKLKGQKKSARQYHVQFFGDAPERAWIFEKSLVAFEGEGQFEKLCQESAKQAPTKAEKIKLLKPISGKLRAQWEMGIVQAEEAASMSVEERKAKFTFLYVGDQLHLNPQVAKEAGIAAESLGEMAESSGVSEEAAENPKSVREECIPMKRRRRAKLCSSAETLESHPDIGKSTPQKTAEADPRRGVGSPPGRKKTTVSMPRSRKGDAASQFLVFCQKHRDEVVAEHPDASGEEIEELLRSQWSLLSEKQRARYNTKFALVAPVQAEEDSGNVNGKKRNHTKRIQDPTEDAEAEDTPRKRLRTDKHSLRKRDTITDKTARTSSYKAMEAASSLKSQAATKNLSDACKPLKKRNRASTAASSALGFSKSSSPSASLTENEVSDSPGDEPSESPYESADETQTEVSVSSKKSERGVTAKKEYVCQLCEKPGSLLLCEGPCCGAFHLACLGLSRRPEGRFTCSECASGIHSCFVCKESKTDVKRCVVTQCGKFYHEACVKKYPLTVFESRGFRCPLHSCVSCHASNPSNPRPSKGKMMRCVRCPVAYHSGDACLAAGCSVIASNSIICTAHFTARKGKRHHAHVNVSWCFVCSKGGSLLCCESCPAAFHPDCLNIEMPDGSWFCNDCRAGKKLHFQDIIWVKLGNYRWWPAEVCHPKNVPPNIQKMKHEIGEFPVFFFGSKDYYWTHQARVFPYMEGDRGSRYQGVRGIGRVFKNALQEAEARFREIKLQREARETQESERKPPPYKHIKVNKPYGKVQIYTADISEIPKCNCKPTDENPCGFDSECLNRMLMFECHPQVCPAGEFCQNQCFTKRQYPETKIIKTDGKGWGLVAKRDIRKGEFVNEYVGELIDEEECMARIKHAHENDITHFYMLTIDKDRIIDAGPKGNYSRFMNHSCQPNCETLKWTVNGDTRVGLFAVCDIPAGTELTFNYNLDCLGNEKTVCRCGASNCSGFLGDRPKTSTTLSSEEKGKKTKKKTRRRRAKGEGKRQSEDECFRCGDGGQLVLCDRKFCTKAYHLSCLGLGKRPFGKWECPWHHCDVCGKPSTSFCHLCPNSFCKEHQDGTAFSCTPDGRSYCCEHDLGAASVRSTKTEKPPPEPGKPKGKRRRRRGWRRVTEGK
# [17] = target: Nucleotide-binding oligomerization domain-containing protein 2 (Homo sapiens, UniProt Q9HC29); assay: PubChem AID 2334; format: functional
# [18] = system: HEK293; assay: cells; conditions: Homo sapiens;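 note: cells exposed to compound for 14 hours overnight before viability readout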
# [19] = target: Tumor necrosis factor (Homo sapiens, UniProt P01375); assay: TNFa-triggered NF-kB activation inhibitors, SAR follow-up, cell-based, revised (AID 2337); format: functional
# [20] = target: Nucleotide-binding oligomerization domain-containing protein 1 (Homo sapiens, UniProt Q9Y239); assay: NOD1 signaling inhibitors, SAR follow-up, revised (AID 2333); format: functional
# [21] = target: Potassium voltage-gated channel subfamily KQT member 2 (Rattus norvegicus, UniProt O88943); assay: KCNQ2 channel activators, analog series, SAR follow-up, automated patch clamp, KCNQ2-CHO cells (AID 493113); format: functional
# Chain of Potassium voltage-gated channel subfamily KQT member 2 (O88943 whole entry): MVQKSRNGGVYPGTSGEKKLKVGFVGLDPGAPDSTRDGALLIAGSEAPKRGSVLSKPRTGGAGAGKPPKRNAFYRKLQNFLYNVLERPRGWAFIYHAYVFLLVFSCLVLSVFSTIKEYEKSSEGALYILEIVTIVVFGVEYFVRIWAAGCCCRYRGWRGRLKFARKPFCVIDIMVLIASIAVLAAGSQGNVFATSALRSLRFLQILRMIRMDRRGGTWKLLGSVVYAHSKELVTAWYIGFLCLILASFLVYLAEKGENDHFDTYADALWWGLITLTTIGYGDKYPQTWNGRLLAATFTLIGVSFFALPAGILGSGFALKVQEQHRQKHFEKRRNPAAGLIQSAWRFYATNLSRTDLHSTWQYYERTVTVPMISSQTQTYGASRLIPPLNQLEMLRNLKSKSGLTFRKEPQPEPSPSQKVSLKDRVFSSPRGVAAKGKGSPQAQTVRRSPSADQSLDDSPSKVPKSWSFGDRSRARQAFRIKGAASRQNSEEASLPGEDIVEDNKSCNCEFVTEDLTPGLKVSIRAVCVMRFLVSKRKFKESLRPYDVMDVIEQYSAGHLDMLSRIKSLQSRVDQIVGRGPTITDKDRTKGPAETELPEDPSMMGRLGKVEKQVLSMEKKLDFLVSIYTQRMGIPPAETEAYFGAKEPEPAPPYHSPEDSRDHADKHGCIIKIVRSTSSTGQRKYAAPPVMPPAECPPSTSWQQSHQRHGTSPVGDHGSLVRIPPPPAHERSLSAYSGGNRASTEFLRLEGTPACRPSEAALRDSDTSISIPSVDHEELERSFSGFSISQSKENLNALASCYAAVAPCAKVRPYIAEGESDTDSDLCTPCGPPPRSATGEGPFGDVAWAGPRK
# Chain of Sphingosine 1-phosphate receptor 5 (Q9H228 whole entry): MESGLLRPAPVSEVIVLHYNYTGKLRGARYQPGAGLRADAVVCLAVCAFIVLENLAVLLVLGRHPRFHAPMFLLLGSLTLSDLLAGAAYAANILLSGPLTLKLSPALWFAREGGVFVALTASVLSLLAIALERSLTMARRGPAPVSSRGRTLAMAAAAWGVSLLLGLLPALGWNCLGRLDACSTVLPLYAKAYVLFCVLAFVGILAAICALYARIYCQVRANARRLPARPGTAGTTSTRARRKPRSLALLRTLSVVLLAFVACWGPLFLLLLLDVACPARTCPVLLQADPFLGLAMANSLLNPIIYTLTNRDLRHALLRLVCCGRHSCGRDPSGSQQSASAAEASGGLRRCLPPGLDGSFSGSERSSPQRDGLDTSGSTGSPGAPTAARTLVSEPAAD
# Chain of Hexokinase-1 (P19367 whole entry): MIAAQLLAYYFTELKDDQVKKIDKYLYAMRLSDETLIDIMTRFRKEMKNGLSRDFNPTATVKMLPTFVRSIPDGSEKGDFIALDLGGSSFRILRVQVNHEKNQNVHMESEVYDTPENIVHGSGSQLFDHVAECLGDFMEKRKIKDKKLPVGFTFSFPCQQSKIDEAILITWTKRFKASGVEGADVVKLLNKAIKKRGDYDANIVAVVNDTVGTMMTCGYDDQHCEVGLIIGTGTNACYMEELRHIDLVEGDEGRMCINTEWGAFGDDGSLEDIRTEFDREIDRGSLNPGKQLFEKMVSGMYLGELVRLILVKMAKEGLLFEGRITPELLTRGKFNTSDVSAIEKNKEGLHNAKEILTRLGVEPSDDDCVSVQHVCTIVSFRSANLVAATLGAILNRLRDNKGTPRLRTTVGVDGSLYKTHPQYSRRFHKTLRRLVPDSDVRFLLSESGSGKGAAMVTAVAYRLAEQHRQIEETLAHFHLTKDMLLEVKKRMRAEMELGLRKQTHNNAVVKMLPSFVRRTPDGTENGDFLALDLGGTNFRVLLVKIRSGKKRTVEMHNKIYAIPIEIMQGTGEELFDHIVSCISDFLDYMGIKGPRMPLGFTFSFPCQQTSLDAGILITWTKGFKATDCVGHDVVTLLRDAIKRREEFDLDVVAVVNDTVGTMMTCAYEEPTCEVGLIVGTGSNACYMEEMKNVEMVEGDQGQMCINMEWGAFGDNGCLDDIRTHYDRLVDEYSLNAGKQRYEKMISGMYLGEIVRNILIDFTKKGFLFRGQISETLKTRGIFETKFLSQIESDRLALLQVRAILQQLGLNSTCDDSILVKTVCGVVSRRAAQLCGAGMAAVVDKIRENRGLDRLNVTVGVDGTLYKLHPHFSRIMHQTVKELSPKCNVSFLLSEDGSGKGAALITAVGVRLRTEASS
# Chain of Sphingosine 1-phosphate receptor 3 (Q99500 whole entry): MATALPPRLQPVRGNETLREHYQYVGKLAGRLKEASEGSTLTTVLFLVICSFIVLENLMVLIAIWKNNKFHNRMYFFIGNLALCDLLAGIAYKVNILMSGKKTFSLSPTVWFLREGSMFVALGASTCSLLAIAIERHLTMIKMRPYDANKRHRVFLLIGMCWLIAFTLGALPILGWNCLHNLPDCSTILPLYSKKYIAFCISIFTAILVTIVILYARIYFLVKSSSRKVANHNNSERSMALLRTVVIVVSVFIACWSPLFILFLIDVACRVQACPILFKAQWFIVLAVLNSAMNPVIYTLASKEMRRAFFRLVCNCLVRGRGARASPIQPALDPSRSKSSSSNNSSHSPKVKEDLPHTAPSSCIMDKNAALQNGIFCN
# Chain of Intestinal-type alkaline phosphatase (Mus musculus, UniProt P24822) (P24822 whole entry): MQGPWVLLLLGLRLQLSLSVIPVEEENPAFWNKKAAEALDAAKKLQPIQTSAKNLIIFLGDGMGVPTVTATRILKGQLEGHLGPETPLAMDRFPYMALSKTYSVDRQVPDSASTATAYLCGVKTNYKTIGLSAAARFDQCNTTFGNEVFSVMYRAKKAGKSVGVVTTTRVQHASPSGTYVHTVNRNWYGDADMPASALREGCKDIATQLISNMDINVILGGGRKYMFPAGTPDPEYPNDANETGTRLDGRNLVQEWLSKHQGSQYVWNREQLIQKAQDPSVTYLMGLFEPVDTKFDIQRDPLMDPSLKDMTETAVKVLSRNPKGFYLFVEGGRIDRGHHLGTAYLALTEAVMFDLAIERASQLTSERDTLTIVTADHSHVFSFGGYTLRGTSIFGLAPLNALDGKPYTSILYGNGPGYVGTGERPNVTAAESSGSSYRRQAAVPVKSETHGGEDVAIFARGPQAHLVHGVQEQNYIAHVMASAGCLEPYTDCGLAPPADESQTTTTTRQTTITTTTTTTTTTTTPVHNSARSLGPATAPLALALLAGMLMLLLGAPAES
# Chain of Hexokinase HKDC1 (Q2TB90 whole entry): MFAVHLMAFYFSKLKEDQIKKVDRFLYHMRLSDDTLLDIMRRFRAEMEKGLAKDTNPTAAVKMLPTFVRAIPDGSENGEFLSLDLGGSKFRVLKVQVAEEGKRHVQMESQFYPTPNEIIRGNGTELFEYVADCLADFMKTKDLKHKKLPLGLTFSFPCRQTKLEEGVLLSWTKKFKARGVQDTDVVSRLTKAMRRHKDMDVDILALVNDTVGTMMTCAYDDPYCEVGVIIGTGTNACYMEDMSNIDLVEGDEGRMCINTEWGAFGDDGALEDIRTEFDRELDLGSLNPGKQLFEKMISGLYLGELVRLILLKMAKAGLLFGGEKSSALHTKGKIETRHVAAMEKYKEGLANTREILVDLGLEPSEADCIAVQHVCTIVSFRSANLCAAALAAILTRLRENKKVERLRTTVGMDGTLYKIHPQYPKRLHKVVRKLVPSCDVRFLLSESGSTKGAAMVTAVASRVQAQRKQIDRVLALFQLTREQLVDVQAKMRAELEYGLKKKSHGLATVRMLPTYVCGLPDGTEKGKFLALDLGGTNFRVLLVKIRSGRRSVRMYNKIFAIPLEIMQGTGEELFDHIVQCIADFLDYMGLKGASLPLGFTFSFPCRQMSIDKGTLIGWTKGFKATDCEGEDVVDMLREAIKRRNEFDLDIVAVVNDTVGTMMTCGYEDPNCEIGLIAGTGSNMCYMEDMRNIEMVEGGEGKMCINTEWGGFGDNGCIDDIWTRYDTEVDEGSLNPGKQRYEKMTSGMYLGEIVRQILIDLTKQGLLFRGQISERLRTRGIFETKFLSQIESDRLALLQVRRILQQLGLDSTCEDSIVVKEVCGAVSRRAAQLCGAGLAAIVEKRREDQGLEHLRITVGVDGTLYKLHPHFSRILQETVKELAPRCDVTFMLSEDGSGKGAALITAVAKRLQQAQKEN
# Chain of Intestinal-type alkaline phosphatase (Homo sapiens, UniProt P09923) (P09923 whole entry): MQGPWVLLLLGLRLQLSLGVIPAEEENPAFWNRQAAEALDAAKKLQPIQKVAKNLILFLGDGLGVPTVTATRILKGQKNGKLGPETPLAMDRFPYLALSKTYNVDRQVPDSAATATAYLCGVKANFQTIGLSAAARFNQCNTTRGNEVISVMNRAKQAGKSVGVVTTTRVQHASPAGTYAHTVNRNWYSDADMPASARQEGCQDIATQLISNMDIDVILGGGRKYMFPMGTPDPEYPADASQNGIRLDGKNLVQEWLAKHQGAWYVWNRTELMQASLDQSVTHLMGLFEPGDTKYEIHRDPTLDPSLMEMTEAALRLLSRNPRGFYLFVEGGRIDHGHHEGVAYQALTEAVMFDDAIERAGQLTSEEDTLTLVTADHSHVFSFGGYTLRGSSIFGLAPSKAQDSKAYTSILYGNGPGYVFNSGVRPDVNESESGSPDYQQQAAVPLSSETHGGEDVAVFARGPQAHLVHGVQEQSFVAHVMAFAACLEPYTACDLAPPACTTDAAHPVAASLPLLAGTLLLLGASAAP
# Chain of Sphingosine 1-phosphate receptor 2 (O95136 whole entry): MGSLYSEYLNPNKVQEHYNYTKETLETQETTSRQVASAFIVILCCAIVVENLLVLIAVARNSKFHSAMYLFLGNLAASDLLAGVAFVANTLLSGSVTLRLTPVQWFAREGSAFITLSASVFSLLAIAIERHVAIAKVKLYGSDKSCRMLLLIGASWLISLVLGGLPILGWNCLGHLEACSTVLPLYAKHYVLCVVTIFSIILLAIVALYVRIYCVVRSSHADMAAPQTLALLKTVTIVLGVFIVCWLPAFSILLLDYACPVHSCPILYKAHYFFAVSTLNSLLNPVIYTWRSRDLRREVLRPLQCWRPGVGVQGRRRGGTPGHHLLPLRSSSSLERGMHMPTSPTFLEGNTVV
structure (smiles),measurement,setting,value
CCc1cccc(C)c1NC(=O)c1ccc(-c2cc(OC)ccc2OC)o1,IC50,[1],> 25 µM (inactive)
same,IC50,[2],> 25 µM (inactive)
same,IC50,[3],> 25 µM (inactive)
same,IC50,[4],> 25 µM (inactive)
same,IC50,[5],0.513 µM (active)
Cc1c(Cl)cccc1N=C(S)NCCC(c1ccccc1)c1ccccc1,EC50,[6],> 150 µM (not active)
same,IC50,[7],42.4 µM (active)
same,IC50,[8],29 µM (active)
same,IC50,[9],8.34 µM (active)
same,EC50,[10],3.76 µM (active)
same,EC50,[11],8.52 µM (active)
CC(=O)OC1C2(CC3N4C(=O)C5(CO)SSC4(CC31O)C(=O)N5C)OC(C)C(C)(C)C2=O (stereo unspecified),IC50,[12],3.64 µM (active)
same,EC50,[13],0.212 µM (active)
same,EC50,[14],> 80 µM (inactive)
same,AC50,[15],5.61 µM (active)
same,AC50,[16],1.06 µM (active)
O=C(Nc1nc2ccccc2n1Cc1ccc(Cl)cc1)c1ccc(Cl)cc1,IC50,[17],> 20 µM (inactive)
same,IC50,[18],> 20 µM (inactive)
same,IC50,[19],> 20 µM (inactive)
same,IC50,[20],> 20 µM (inactive)
Cc1cc(C)c(NC(=O)C2CCCCC2)c(C)c1,EC50,[21],1.57 µM (active)

# Source: ChEMBL document CHEMBL1201862, “PubChem BioAssay data set” (2004)
